Test results taken from US9676754B2, “Triazolone compounds and uses thereof” (Inception 2, Inc., priority 2012, dated 2017).
pIC50: −log10 of the molar value.

Biological target: T1, Human PPARα (Homo sapiens, UniProt Q07869)
T1 construct: host or cells: proprietary non-human mammalian cells
T1 sequence (Q07869 1-468): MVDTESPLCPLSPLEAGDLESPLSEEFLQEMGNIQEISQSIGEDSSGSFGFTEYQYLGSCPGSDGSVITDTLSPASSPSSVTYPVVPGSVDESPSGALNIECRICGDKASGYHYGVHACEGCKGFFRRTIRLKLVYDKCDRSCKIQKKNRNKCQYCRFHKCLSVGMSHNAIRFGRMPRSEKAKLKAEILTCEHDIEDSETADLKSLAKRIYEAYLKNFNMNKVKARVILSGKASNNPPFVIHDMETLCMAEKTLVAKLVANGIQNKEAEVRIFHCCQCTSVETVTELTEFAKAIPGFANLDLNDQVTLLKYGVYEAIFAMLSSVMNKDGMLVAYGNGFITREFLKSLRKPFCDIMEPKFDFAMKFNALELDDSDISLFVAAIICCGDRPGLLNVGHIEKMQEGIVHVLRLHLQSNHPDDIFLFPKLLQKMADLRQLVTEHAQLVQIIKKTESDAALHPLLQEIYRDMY
Test: Human PPARα Reporter Assay (luciferase)
Type: cell-based
Settings: antagonist activity, luciferase reporter cells, overnight incubation; read-out: Human PPARα Reporter Assay-Luciferase IC50
Experimental: Human PPARα Reporter Assay
The screening of test compounds for agonist or antagonist activities against human PPARα receptors was performed using a commercial kit, Human PPARα Reporter Assay System (Indigo Biosciences, Cat. #IB00111).
This nuclear receptor assay system utilizes proprietary non-human mammalian cells engineered to provide constitutive, high-level expression of Human PPARα. Because these cells incorporate a PPARα-responsive luciferase reporter gene, quantifying expressed luciferase activity provides a sensitive surrogate measure of PPARα activity in the treated cells. The primary application of this reporter assay system is in the screening of test samples to quantify any functional activity, either agonist or antagonist, that they may exert against human PPARα. […] Briefly, the reporter cells are dispensed into wells of the assay plate and then immediately dosed with test compounds. Following an overnight incubation, the treatment media are discarded and Luciferase Detection Reagent (LDR) is added. The intensity of light emission from the ensuing luciferase reaction provides a sensitive measure that is directly proportional to the relative level of PPARα activation in the reporter cells.

## CCn1c(CCCc2cccc(-c3cccc(CC(=O)O)c3)c2)nn(Cc2ccc(C(C)(C)C)cc2)c1=O [Example 1, 2-(3′-(3-(1-(4-(tert-Butyl)benzyl)-4-ethyl-5-oxo-4,5-dihydro-1H-1,2,4-triazol-3-yl)propyl)-[1,1′-biphenyl]-3-yl)acetic acid]
  pIC50: 6.46

## CCn1c(CCCc2cccc(-c3ccc(CC(=O)O)cc3)c2)nn(Cc2ccc(C(C)(C)C)cc2)c1=O [Example 2, 2-(3′-(3-(1-(4-(tert-Butyl)benzyl)-4-ethyl-5-oxo-4,5-dihydro-1H-1,2,4-triazol-3-yl)propyl)-[1,1′-biphenyl]-4-yl)acetic acid]
  pIC50: 6.49

## CCn1c(CCCc2cccc(-c3cccc(C(=O)O)c3)c2)nn(Cc2ccc(C(C)(C)C)cc2)c1=O [Example 3, 3′-(3-(1-(4-(tert-Butyl)benzyl)-4-ethyl-5-oxo-4,5-dihydro-1H-1,2,4-triazol-3-yl)propyl)-[1,1′-biphenyl]-3-carboxylic acid]
  pIC50: 5.88

## CCn1c(CCCc2cccc(-c3ccc(C(=O)O)cc3)c2)nn(Cc2ccc(C(C)(C)C)cc2)c1=O [Example 4, 3′-(3-(1-(4-(tert-Butyl)benzyl)-4-ethyl-5-oxo-4,5-dihydro-1H-1,2,4-triazol-3-yl)propyl)-[1,1′-biphenyl]-4-carboxylic acid]
  pIC50: 6.96

## CCOc1ccc(-c2cccc(CCCc3nn(Cc4ccc(C(C)(C)C)cc4)c(=O)n3CC)c2)cc1C1(C(=O)O)CC1 [Example 5, 1-(3′-(3-(1-(4-(tert-Butyl)benzyl)-4-ethyl-5-oxo-4,5-dihydro-1H-1,2,4-triazol-3-yl)propyl)-4-ethoxy-[1,1′-biphenyl]-3-yl)cyclopropanecarboxylic acid]
  pIC50: 6.86

## CCn1c(CCCc2cccc(-c3cccc(C4(C(=O)O)CC4)c3)c2)nn(Cc2ccc(C(C)(C)C)cc2)c1=O [Example 7, 1-(3′-(3-(1-(4-(tert-Butyl)benzyl)-4-ethyl-5-oxo-4,5-dihydro-1H-1,2,4-triazol-3-yl)propyl)-[1,1′-biphenyl]-3-yl)cyclopropanecarboxylic acid]
  pIC50: 7.11

## CCn1c(CCCc2cccc(-c3ccc(C4(C(=O)O)CC4)cc3)c2)nn(Cc2ccc(C(C)(C)C)cc2)c1=O [Example 8, 1-(3′-(3-(1-(4-(tert-Butyl)benzyl)-4-ethyl-5-oxo-4,5-dihydro-1H-1,2,4-triazol-3-yl)propyl)-[1,1′-biphenyl]-4-yl)cyclopropanecarboxylic acid]
  pIC50: 6.31

## CCn1c(CCCc2cccc(-c3ccc(OC)c(C(=O)O)c3)c2)nn(Cc2ccc(C(C)(C)C)cc2)c1=O [Example 9, 3′-(3-(1-(4-(tert-Butyl)benzyl)-4-ethyl-5-oxo-4,5-dihydro-1H-1,2,4-triazol-3-yl)propyl)-4-methoxy-[1,1′-biphenyl]-3-carboxylic acid]
  pIC50: 6.26

## CCOc1ccc(-c2cccc(CCCc3nn(Cc4ccc(C(C)(C)C)cc4)c(=O)n3CC)c2)cc1C(=O)O [Example 10, 3′-(3-(1-(4-(tert-Butyl)benzyl)-4-ethyl-5-oxo-4,5-dihydro-1H-1,2,4-triazol-3-yl)propyl)-4-ethoxy-[1,1′-biphenyl]-3-carboxylic acid]
  pIC50: 6.68

## CCCOc1ccc(-c2cccc(CCCc3nn(Cc4ccc(C(C)(C)C)cc4)c(=O)n3CC)c2)cc1CC(=O)O [Example 11, 2-(3′-(3-(1-(4-(tert-Butyl)benzyl)-4-ethyl-5-oxo-4,5-dihydro-1H-1,2,4-triazol-3-yl)propyl)-4-propoxy-[1,1′-biphenyl]-3-yl)acetic acid]
  pIC50: 7.32

## CCn1c(CCCc2cccc(-c3ccc(NS(=O)(=O)c4ccccc4)cn3)c2)nn(Cc2ccc(C(C)(C)C)cc2)c1=O [Example 12, N-(6-(3-(3-(1-(4-(tert-Butyl)benzyl)-4-ethyl-5-oxo-4,5-dihydro-1H-1,2,4-triazol-3-yl)propyl)phenyl)pyridin-3-yl)benzenesulfonamide]
  pIC50: 6.52

## CCn1c(CCCc2cccc(-c3ccc(OC)c(CC(=O)O)c3)c2)nn(Cc2ccc(C(C)(C)C)cc2)c1=O [Example 13, 2-(3′-(3-(1-(4-(tert-Butyl)benzyl)-4-ethyl-5-oxo-4,5-dihydro-1H-1,2,4-triazol-3-yl)propyl)-4-methoxy-[1,1′-biphenyl]-3-yl)acetic acid]
  pIC50: 6.71

## CCn1c(CCCc2cccc(-c3ccc(C)c(C4(C(=O)O)CC4)c3)c2)nn(Cc2ccc(C(C)(C)C)cc2)c1=O [Example 14, 1-(3′-(3-(1-(4-(tert-Butyl)benzyl)-4-ethyl-5-oxo-4,5-dihydro-1H-1,2,4-triazol-3-yl)propyl)-4-methyl-[1,1′-biphenyl]-3-yl)cyclopropanecarboxylic acid]
  pIC50: 6.63

## CCn1c(CCCc2cccc(-c3ccc(OCc4ccccc4)c(CC(=O)O)c3)c2)nn(Cc2ccc(C(C)(C)C)cc2)c1=O [Example 15, 2-(4-(Benzyloxy)-3′-(3-(1-(4-(tert-butyl)benzyl)-4-ethyl-5-oxo-4,5-dihydro-1H-1,2,4-triazol-3-yl)propyl)-[1,1′-biphenyl]-3-yl)acetic acid]
  pIC50: 6.91

## CCn1c(CCCc2cccc(-c3ccc(OCC4CC4)c(CC(=O)O)c3)c2)nn(Cc2ccc(C(C)(C)C)cc2)c1=O [Example 16, 2-(3′-(3-(1-(4-(tert-Butyl)benzyl)-4-ethyl-5-oxo-4,5-dihydro-1H-1,2,4-triazol-3-yl)propyl)-4-(cyclopropylmethoxy)-[1,1′-biphenyl]-3-yl)acetic acid]
  pIC50: 6.85

## CCn1c(CCCc2cccc(-c3ccc(F)c(CC(=O)O)c3)c2)nn(Cc2ccc(C(C)(C)C)cc2)c1=O [Example 17, 2-(3′-(3-(1-(4-(tert-Butyl)benzyl)-4-ethyl-5-oxo-4,5-dihydro-1H-1,2,4-triazol-3-yl)propyl)-4-fluoro-[1,1′-biphenyl]-3-yl)acetic acid]
  pIC50: 7.08

## CCOc1ccc(CC(=O)O)cc1-c1cccc(CCCc2nn(Cc3ccc(C(C)(C)C)cc3)c(=O)n2CC)c1 [Example 18, 2-(3′-(3-(1-(4-(tert-Butyl)benzyl)-4-ethyl-5-oxo-4,5-dihydro-1H-1,2,4-triazol-3-yl)propyl)-6-ethoxy-[1,1′-biphenyl]-3-yl)acetic acid]
  pIC50: 6.12

## CCCOc1ccc(-c2cccc(CCCc3nn(Cc4ccc(C(C)(C)C)cc4)c(=O)n3CC)c2)cc1C(=O)O [Example 19, 3′-(3-(1-(4-(tert-Butyl)benzyl)-4-ethyl-5-oxo-4,5-dihydro-1H-1,2,4-triazol-3-yl)propyl)-4-propoxy-[1,1′-biphenyl]-3-carboxylic acid]
  pIC50: 6.92

## CCn1c(CCCc2cccc(-c3cccc(CNS(=O)(=O)c4ccccc4)c3)c2)nn(Cc2ccc(C(C)(C)C)cc2)c1=O [Example 20, N-((3′-(3-(1-(4-(tert-Butyl)benzyl)-4-ethyl-5-oxo-4,5-dihydro-1H-1,2,4-triazol-3-yl)propyl)-[1,1′-biphenyl]-3-yl)methyl)benzenesulfonamide]
  pIC50: 6.05

## CCn1c(CCCc2cccc(-c3ccc(OC)c(CCC(=O)O)c3)c2)nn(Cc2ccc(C(C)(C)C)cc2)c1=O [Example 21, 3-(3′-(3-(1-(4-(tert-Butyl)benzyl)-4-ethyl-5-oxo-4,5-dihydro-1H-1,2,4-triazol-3-yl)propyl)-4-methoxy-[1,1′-biphenyl]-3-yl)propanoic acid]
  pIC50: 6.21

## CCOc1ccc(-c2cccc(C(F)(F)CCc3nn(Cc4ccc(C(C)(C)C)cc4)c(=O)n3CC)c2)cc1CC(=O)O [Example 22, 2-(3′-(3-(1-(4-(tert-Butyl)benzyl)-4-ethyl-5-oxo-4,5-dihydro-1H-1,2,4-triazol-3-yl)-1,1-difluoropropyl)-4-ethoxy-[1,1′-biphenyl]-3-yl)acetic acid]
  pIC50: 7.19

## CCn1c(CCC(F)(F)c2cccc(-c3ccc(NS(=O)(=O)c4ccccc4)cn3)c2)nn(Cc2ccc(C(C)(C)C)cc2)c1=O [Example 23, N-(6-(3-(3-(1-(4-(tert-Butyl)benzyl)-4-ethyl-5-oxo-4,5-dihydro-1H-1,2,4-triazol-3-yl)-1,1-difluoropropyl)phenyl)pyridin-3-yl)benzenesulfonamide]
  pIC50: 6.18

## CCn1c(CCCc2cccc(-c3ccc(OC)c(CC(=O)O)c3)n2)nn(Cc2ccc(C(C)(C)C)cc2)c1=O [Example 24, 2-(5-(6-(3-(1-(4-(tert-Butyl)benzyl)-4-ethyl-5-oxo-4,5-dihydro-1H-1,2,4-triazol-3-yl)propyl)pyridin-2-yl)-2-methoxyphenyl)acetic acid]
  pIC50: 5.60

## CCn1c(CCCc2cccc(-c3cccc(-c4nnn[nH]4)c3)c2)nn(Cc2ccc(C(C)(C)C)cc2)c1=O [Example 25, 3-(3-(3′-(1H-Tetrazol-5-yl)-[1,1′-biphenyl]-3-yl)propyl)-1-(4-(tert-butyl)benzyl)-4-ethyl-1H-1,2,4-triazol-5(4H)-one]
  pIC50: 5.64

## CCOc1ccc(-c2nccc(CCCc3nn(Cc4ccc(C(C)(C)C)cc4)c(=O)n3CC)n2)cc1CC(=O)O [Example 26, 2-(5-(4-(3-(1-(4-(tert-Butyl)benzyl)-4-ethyl-5-oxo-4,5-dihydro-1H-1,2,4-triazol-3-yl)propyl)pyrimidin-2-yl)-2-ethoxyphenyl)acetic acid]
  pIC50: 5.91
